What was measured:
[1] = test system: variegating white reporter transgene flies (C3/2L, BL2/Y); assay: P9 fed to flies with variegating white reporter transgene; assay type: in vivo, Drosophila melanogaster; settings: transgene at the basis of chromosome 2L; data not shown
Source text: Although we favor the possibility that P9 and MATH20 reduce the spreading of heterochromatin toward w^m4 through long-range effects, we cannot completely rule out the possibility that a local binding site near the white gene (a local SAR) is involved. We attempted to address this issue by studying the effect of P9 on two different variegating miniwhite reporter genes called C3/2L and BL2/Y (Lu et al., 1996; Wallrath and Elgin, 1995). […] Nevertheless, we consider a local-acting mode less likely; the enormous target size of satellite III, 11 Mb versus 0.5 kb for a typical SAR, favors a long-range spreading model.

[2] = test system: bw^D/bw^D; Ubx^1/+ flies; assay: P31 fed to developing Ubx^1/+; bw^D flies; assay type: in vivo, Drosophila melanogaster
Source text: P31 enhances haltere-to-wing transformation in heterozygous bw^D/bw; Ubx^1/+ flies: The GAGA factor is know to bind to the promoter of Ubx and to stimulate its transcription in vitro (Biggin and Tjian, 1988) The Trl locus also genetically interacts with Ubx, since Trl^13C dominantly enhances the segmental transformation observed in Ubx heterozygotes. […] We asked, does P31 also chemically mimic the genetic interaction of Ubx and Trl^13C? To address this issue, we fed P31 to two genotypes, +/+; Ubx/+ and bw^D/bw^D; Ubx^1/+. The latter genotype was obtained by crossing bw^D/bw^D; st/st females and bw^D/bw^D Ubx^1/Tm3, sb males.
The progeny of these two genotypes raised in the presence of P31 were scored both for the A6 to A5 and the haltere-to-wing transformations as well as for the sex comb reduced phenotypes (Table 3). […] However, eight of them (out of approximately 100) reached a late pupae stage and thus could be dissected to inspect their morphology. […] This transformation was manifested by an enlarged size and gray color of the halteres, and also by the appearance of numerous bristles at the base of the halteres that are characteristic of the anterior wing margin. […] We conclude that the chemical mimicry by P31 in a bw^D genetic backgrounds extends to the genetic interaction of Trl^13C with Ubx.
The lethality of the progenies was calculated by counting the dead bodies and the total empty pupal shells. The A6 to A5 transformation was detected by bristles that form on abdominal segment A6 on males. All male adult flies obtained (˜50) were scored. Sex combs and halteres were individually inspected and photographed under the microscope (Axiophot, Zeiss) after dissecting at least 30 individuals and incubating them into 30 μl of 0.6 g/ml gum arabic; 4 g/ml chlorohydrate; 35% glycerol under a 24×24 mm coverslip as described (Ashburner, 1989). Since raising double heterozygous flies (Ubx^1/+; bw^D/+) led to lethality, we morphologically dissected eight late stage pupae after carefully removing the pupal envelope.

[3] = test system: GAGAA repeats (satellite V / bw^D repeats); assay: DNase I footprinting on GAGAA repeats (GAF31 and Brown I probes); assay type: binding, Drosophila melanogaster
Source text: FIG. 3 Binding specificity of P31 and GAGA factor Panel A: DNAse I footprinting experiment with P31 and affinity cleavage with P31E are shown on GAF31 and the Brown I probes. The GAF31 and Brown I probes contains a (AAGAG)2 motif and GAGA factor (GAF) binding site from the Ubx promoter (Biggin et al., 1988). […] The Brown I oligo (a tandem repeat) includes an (AAGAG)s binding site and a degenerate P31 binding site (AACAC)2 as indicated. P31 concentrations used (nM) are indicated. Lanes labeled P31E (top) are affinity cleavage reactions with 1 nM of P31E on either probe. Binding orientations of P31E on these probes are indicated by arrowheads on the brackets pointing towards the N-terminus of the molecule. The letter G refers the G nucleotide cleavage reaction. Panel B: DNAse I footprinting experiment with purified GAGA factor (GAF) on the GAF31 probe. Note that GAF binds both the (AAGAG)2 motif and the binding site from the Ubx promoter.
A polyamide that targets the abundant satellite V composed of GAGAA repeats (Lohe et al., 1993) was synthesized. Designing molecules that would bind to this repeat motif represented a challenge since with current knowledge, targeting of sequences containing 5′-GNG-3′ or 5′-GA-3′ with drugs composed of pyrrole and imidazole is difficult. However, successful targeting to sequences containing 5′-GTG-3′ was previously achieved using an Im-β-Im motif where β-alanine replaces the function of pyrrole (Turner et al., 1998). Since β-alanine, like pyrroles, is degenerate for […] and T^•A base pairs, we designed a compound based on these observations, to recognize a sequence composed of two tandem GAGAA repeats by systematic placement of -alanine at the N-terminal neighbor of imidazole. The binding affinity and specificity of this compound, termed P31 (=Im-β-Im-Py-β-Im-β-Im-β-Dp), were evaluated by DNAse I footprinting. For this purpose, two different probes were examined, both containing GAGAA repeats. […] The apparent binding constant of P31 for this sequence was estimated at 0.25 nM. […]

With CN(C)CCCNC(=O)CCNC(=O)c1cc(NC(=O)c2cc(NC(=O)c3cc(NC(=O)CCNC(=O)c4cc(NC(=O)c5cc(NC(=O)c6cccn6C)cn5C)cn4C)cn3C)cn2C)cn1C [Compound P9, PyPyPy-β-PyPyPy-β-Dp] as the compound, how does the “suppression of PEV of a variegating white reporter transgene” value [1] read?
The value was “did not suppress PEV”.

With CN(C)CCCNC(=O)CCNC(=O)c1nc(NC(=O)CCNC(=O)c2nc(NC(=O)CCNC(=O)c3cc(NC(=O)c4nc(NC(=O)CCNC(=O)c5nccn5C)cn4C)cn3C)cn2C)cn1C [Compound P31, Im-β-Im-Py-β-Im-β-Im-β-Dp] as the compound, how does the “pupae with clear signs of haltere-to-wing transformation” value ([2]; bw^D/bw^D, Ubx^1/+, dissected late pupae) read?
Its value is “five of eight”.

And the “A6 to A5” value ([2]; fly stock Ubx^1/+, bw^D)?
Its value is 100%.

What about the Lethality ([2]; fly stock Ubx^1/+, bw^D) of the same compound?
The Lethality was 100%.

And the “Sex comb (mean)” value ([2]; fly stock Ubx^1/+, bw^D)?
Its value is 7.4.

What about the “Sex comb, range of teeth” value ([2]; fly stock Ubx^1/+, bw^D) of the same compound?
Its value is 5-9.

What about the “A6 to A5, number of bristles on A6” value ([2]; fly stock Ubx^1/+, bw^D, dissected late pupae) of the same compound?
The value was 2-6.

What about the “effect on development (in words)” value ([2]; in vivo) of the same compound?
Its value is “blocked their development completely”.

And the “concentration at which bw^D repeats are protected” value ([3]; 2 consecutive bw^D repeats (GAGAAGAGAA))?
Its value is 0.1 nM.

And the Kd ([3]; DNase I footprinting, read-out: apparent binding constant for two GAGAA repeats)?
Its Kd is 0.25 nM.

And the “affinity for target binding site (in words)” value ([3]; two GAGAA repeats)?
The value was “subnanomolar affinity”.

Reference: patent US20030157715A1, “Modulation of chromosome function by chromatin remodeling agents” (priority 2000, published 2003)
